Results: publication PMC4009755, “High-Throughput Screen of Natural Product Libraries for Hsp90 Inhibitors” (Biology, 2014)
Read-outs that look alike come from different tables or passages of the source. Values belong to the compound of their own block, whether it stands above or below them.

Columns and labels:
[1] = biological target: Hsp90 chaperone machinery present in rabbit reticulocyte lysate; test: Hsp90-dependent refolding of thermally denatured luciferase in rabbit reticulocyte lysate (high-throughput screen and titration); type: biochemical; conditions: for Inhibition of Hsp90-dependent refolding of luciferase in the initial screen: 12.5 µg/mL (Analyticon compounds 40 µM), Microsource screen used a cut-off of 70% inhibition
Procedure: Rabbit reticulocyte lysate, prepared by lysing one volume of packed reticulocytes in two volumes of deionized water, followed by centrifugation for twenty minutes at 15,000 × g, was purchased from Green Hectares (Oregon, WI, USA).
Recombinant luciferase from Promega was diluted to 0.5 mg/mL in buffer consisting of 25 mM Tricine–HCl (pH 7.8), 8 mM MgSO4, 0.1 mM EDTA, and 10 mg/mL acetylated BSA. Next, the solution was adjusted to include 10% glycerol and 1% Triton X-100. Finally, the luciferase solution was heated to ~41°. Once the activity of the luciferase reached ~1% of its initial value, the mixture was placed on ice, or flash frozen in liquid nitrogen and placed at −80° for storage.
To prepare the denatured luciferase for use in re-folding assays, 125 µL of the 0.5 mg/mL mixture was added into a 10 mL mixture containing 80 mM Tris HCl, pH 7.7, 8 mM Mg(OAc)2, 300 mM KCl, 12 mM ATP, and 20 mM creatine phosphate, and 0.8 mg/mL creatine phosphokinase.
The assay buffer, which contains the luciferase substrate luciferin, consisted of 75 mM Tricine-HCl, pH 7.8, 24 mM MgSO4, 300 µM EDTA, 2 mM DTT, 313 µM D-luciferin, 640 µM coenzyme A, 660 µM ATP, 150 mM KCl, 10% (v/v) Triton X-100, 20% (v/v) glycerol, and 3.5% DMSO.
The libraries were screened for compounds that inhibited the refolding of thermally denatured luciferase using a high-throughput assay carried out with a slight modification of the method previously described. Briefly, compounds were reconstituted in 100% DMSO. Stocks of compounds purchased from Microsource, TimTec, Biofocus and BioMol were reconstituted to a concentration of 1 mg/mL. The stocks were diluted 40-fold into nano-pure water with the compounds being used at a final concentration of 12.5 µg/mL for the assay. Analyticon compounds (0.2 µmol) were reconstituted to a concentration of 4 mM, and were used at a final concentration of 40 µM in the assay. Assays were performed in 96-well microplates. To each well was added 30 µL of the water/DMSO compound solution, 15 µL of the reticulocyte lysate preparation, and 15 µL of the luciferase reagent. The plates were agitated and then allowed to incubate at 25 °C for one to three hours. After the incubation, 60 µL of assay buffer containing luciferin was added to each well. The plates were then read in a Molecular Devices LMaxII^384 microplate reader, and luminescence was measured in relative light units, with an integration time of 10 s. Compounds that inhibited luciferase refolding by approximately fifty percent or greater were then titrated into a refolding reaction containing native luciferase, to eliminate false positive hits that were direct inhibitors of luciferase as previously described. Compounds were classified as a potential Hsp90 inhibitor if they inhibited luciferase refolding by 60% or greater and there was no inhibition of the activity of native luciferase at the compound’s IC50 (concentration of the compound that inhibits luciferase refolding by 50%).
The titrations were repeated twice. For a more accurate determination of the IC50s for the compounds studied in Section 3.2.1 of this manuscript, a two-fold […] series of the compounds were used in triplicate, with the experiment being repeated three times.

[2] = tested on: heme-regulated eIF2α kinase (HRI); test: Hsp90-dependent maturation of the heme-regulated eIF2α kinase (HRI) in reticulocyte lysate; type: biochemical, rabbit; conditions: heme-deficient lysate, mobility shift on PAGE
Procedure: [^35S]-Labeled His-tagged HRI was translated by coupled transcription/translation for 20 min in TnT reticulocyte lysate at 30 °C. Drugs or DMSO vehicle control were then added. After an additional 10 min, the reactions (4 µL aliquots) were diluted into 28 µL volumes of heme-supplemented control lysate or heme-deficient lysate, containing the same respective drugs and DMSO vehicle control. The samples were allowed to incubate for another 40 min at 37 °C. The [^35S]-Labeled His-tagged HRI was then adsorbed from the reactions with NTA-Ni^2+ agarose resin for 1 h at 4 °C. The agarose resins were the washed four times total, in P50T, P100T 2X, and P50T again. SDS sample buffer was then added to the pellets, the samples boiled, and then separated on an 8% PAGE gel, and transferred to PVDF membrane. Membranes were dried and exposed to X-ray film for autoradiography.

[3] = tested on: Hsp90-dependent client proteins Cdk6, pAkt, Her2; Hsp90 and Hsp70 in MCF7 cells; test: Inhibitor-dependent depletion of Hsp90-dependent clients from MCF7 cells (Western blot); type: cell-based, human; conditions: 24 h
Procedure: MCF7 cells were grown to confluence in Advanced DMEM/F12 (1:1; Gibco) supplemented with L-glutamine (2 mM), streptomycin (500 µg/mL), and penicillin (100 units/mL) and re-seeded at 0.4 × 10^6 cells/well/2 mL. Cells were incubated in a humidified atmosphere (37 °C, 5% CO2) for 24 h and treated with varying concentrations of compound or 0.5 µM geldanamycin in DMSO (0.25% DMSO final concentration), or vehicle (DMSO) for 24 h. Cells were harvested in cold PBS and lysed using MPER (Thermo Scientific/Pierce, USA) supplemented with protease and phosphatase inhibitors (Roche Applied Science, USA) according to manufacturer’s directions. Lysates were clarified at 14,000 g for 15 min at 4 °C. Protein concentrations were determined using the Pierce BCA protein assay kit per the manufacturer’s instructions. Equal amounts of protein (15 μg) were electrophoresed under reducing conditions (10% acrylamide gels), transferred to PVDF, and immunoblotted with the corresponding antibody (Anti-pAkt, -Her2, and -Cdk6 antibodies were from Cell Signaling; anti-actin was from Santa Cruz Biotechnology; and anti-Hsp90 and -Hsp70 were from Enzo Lifesciences). Membranes were incubated with an appropriate horseradish peroxidase-labeled secondary antibody, developed with a chemiluminescent substrate, and visualized.

MCF7 breast cancer cells = test: Antiproliferation assay (MTS), MCF7 cells; type: cell-based; conditions: Homo sapiens
Procedure: MCF7 cells were grown in Gibco Dulbecco’s Modified Essential Medium, supplemented with non-essential amino acids, 2 mM glutamine, and 10% fetal bovine serum. Cells were seeded at 2,000 cells per well in clear 96-well plates containing 100 µL of media per well, and the cells were allowed to attach overnight. The next day, serial dilutions of compounds in DMSO or DMSO control was added to the wells. Cells were then incubated at 37 °C for 48 h. Cell viability was determined using the Promega Cell Titer 96 Aqueous One Solution Cell Proliferation Assay, which makes use of a soluble tetrazolium compound that is converted into a chromophore by living cells. After incubation with compounds, 20 µL of the assay substrate solution were added to the wells, and the plate was incubated at 37 °C for an additional hour. The plate was then read at absorbance at 490 nm using a Molecular Devices Versamax plate reader. Values are expressed as percent DMSO control. All experiments were done in triplicate.

Plasmodium falciparum = tested on: Plasmodium falciparum; parameters: method as in PMID 17913482; conditions: cited from earlier work
[4] = MCF7 cells, 48 h, MTS assay, read-out: IC50 MCF7 proliferation

Compound: C=C1C(=O)O[C@@H]2C[C@@H](C)[C@@H]3C=CC(=O)[C@@]3(C)[C@@H](O)[C@H]12 [Compound 9, Helenalin]
IC50 [1]: ~80 µM

Compound: O=c1cc(-c2ccc(O)c(O)c2)oc2cc(O)cc(O)c12 [Compound 31, Luteolin]
Inhibition of Hsp90-dependent refolding of luciferase in the initial screen [1]: no inhibitory activity in one of the screens

Compound: Tyrothricin [Compound 74]
IC50 [1]: ~5 µM

Inhibition of Hsp90-dependent maturation of HRI ([2]; 100 µM): inhibited the maturation of HRI
IC50 (MCF7 breast cancer cells; [4]): 4 ± 0.6 µM
Compound: C=C(C)[C@@H](CC=C(C)C)C[C@@]12C[C@@H](CC=C(C)C)C(C)(C)[C@@](CC=C(C)C)(C(=O)C(C(=O)c3ccc(O)c(O)c3)=C1O)C2=O [Garcinol]
Depletion of Hsp90 clients (Cdk6, pAkt, Her2) ([3]; varying concentrations): concentration-dependent depletion
Expression of Hsp70 ([3]; varying concentrations): no effect
Expression of Hsp90 ([3]; varying concentrations): None of the compounds increased the expression of Hsp90

Compound: L-Adrenaline [Compound 99]
IC50 [1]: ~55 µM

Inhibition of Hsp90-dependent maturation of HRI [2]: inhibited the maturation of HRI
Compound: CO[C@@H]1[C@@H](OC(N)=O)[C@@H](O)[C@H](Oc2ccc3c(O)c(NC(=O)c4ccc(O)c(CC=C(C)C)c4)c(=O)oc3c2C)OC1(C)C [novobiocin, reference compound]

Inhibition of Hsp90-dependent maturation of HRI ([2]; 20 µM): inhibited the maturation of HRI
Compound: COC1=C2C[C@@H](C)C[C@H](OC)[C@H](O)[C@@H](C)/C=C(\C)[C@H](OC(N)=O)[C@@H](OC)/C=C\C=C(/C)C(=O)NC(=CC1=O)C2=O [geldanamycin, reference compound]
Expression of Hsp70 ([3]; 0.5 µM): increase in the expression of Hsp70

Compound: C=C1CCC(O)CC1=CC=C1CCCC2(C)C1CCC2C(C)CCCC(C)C (centres unmarked) [Compound 98]
IC50 [1]: ~60 µM

Compound: CC(=O)c1c(O)c(C)c(O)c(Cc2c(O)c3c(c(C(=O)/C=C/c4ccccc4)c2O)OC(C)(C)C=C3)c1O [Compound 47, Rottlerin]
Inhibition of Hsp90-dependent maturation of HRI ([2]; 100 µM): inhibited the maturation of HRI
IC50 [1]: ~60 µM
IC50 ([1]; read-out: IC50 luciferase refolding): 63 ± 5 µM
Depletion of Hsp90 clients (Cdk6, pAkt, Her2) ([3]; varying concentrations): concentration-dependent depletion
Expression of Hsp70 ([3]; varying concentrations): concentration-dependent increase
Expression of Hsp90 ([3]; varying concentrations): None of the compounds increased the expression of Hsp90
IC50 (MCF7 breast cancer cells; [4]): 7 ± 3 µM

Inhibition of Hsp90-dependent refolding of luciferase in the initial screen [1]: consistently identified as hits
Compound: COc1cc(/C=C/C(=O)CC(=O)/C=C/c2ccc(O)c(OC)c2)ccc1O [Compound 40, Curcumin]

Compound: CC(=O)O[C@@H]1C[C@@]2(C)[C@H](c3ccoc3)C[C@H]3O[C@]32[C@]2(C)C(=O)C(O)=C3C(C)(C)C(=O)C=C[C@]3(C)[C@@H]12 [Compound 50, Anthothecol]
Inhibition of Hsp90-dependent maturation of HRI ([2]; 100 µM): inhibited the maturation of HRI
Fold higher activity than gedunin ([1]; relative to the Hsp90 inhibitor gedunin, assay not specified): approximately 10 fold
Depletion of Hsp90 clients (Cdk6, pAkt, Her2) ([3]; varying concentrations): concentration-dependent depletion
Expression of Hsp70 ([3]; varying concentrations): concentration-dependent increase
Expression of Hsp90 ([3]; varying concentrations): None of the compounds increased the expression of Hsp90
Activity against the growth of Plasmodium falciparum in erythrocytes (Plasmodium falciparum): low micromolar activity
IC50 (MCF7 breast cancer cells; [4]): 0.5 ± 0.06 µM

Compound: COC(=O)[C@]1(C)CC[C@]2(C)CC[C@]3(C)C4=CC=C5C(=CC(=O)C(O)=C5C)[C@]4(C)CC[C@@]3(C)[C@@H]2C1 [Compound 49, Celastrol methyl ester]
IC50 [1]: ~2 µM

Compound: COc1cc(/C=C/C(=O)N2CCC=CC2=O)cc(OC)c1OC [Piplartine]
Inhibition of Hsp90-dependent maturation of HRI ([2]; 100 µM): inhibited the maturation of HRI
Depletion of Hsp90 clients (Cdk6, pAkt, Her2) ([3]; varying concentrations): concentration-dependent depletion
Expression of Hsp70 ([3]; varying concentrations): no effect
Expression of Hsp90 ([3]; varying concentrations): None of the compounds increased the expression of Hsp90
IC50 (MCF7 breast cancer cells; MCF7, 48 h, read-out: IC50 MCF7 proliferation (µM)): 10 ± 3 µM

Compound: CC1=CC(=O)c2c(O)cccc2C1=O [Compound 84, Plumbagin]
Inhibition of Hsp90-dependent refolding of luciferase in the initial screen [1]: consistently identified as hits

Inhibition of Hsp90-dependent maturation of HRI [2]: inhibited the maturation of HRI
Compound: [Na+].[Na+].[O]=[Mo](=[O])([O-])[O-] [molybdate, sodium molybdate, reference compound]

Compound: CC(C)=CCC[C@]1(C)C=Cc2c(O)c3c(c(CC=C(C)C)c2O1)O[C@]12C(=C[C@@H]4C[C@H]1C(C)(C)O[C@@]2(C/C=C(/C)C(=O)O)C4=O)C3=O [Compound 35, Gambogic acid]
Inhibition of Hsp90-dependent refolding of luciferase in the initial screen [1]: consistently identified as hits

Compound: COc1c2c3c4c(c(OC)c(=O)c5c(O)cc(OC)c(c6c(OC)cc(O)c(c1=O)c63)c54)[C@@H](C(C)=O)[C@@](C)(O)C2 [Compound 116, Hypocrellin A]
IC50 [1]: 5 to 10 µM
